According to article PMC9699089 (Pathogens, 2022):
Where two headings read alike, the source gives them in different places.

How the values were obtained:
[1] = tested on: L. donovani (MHOM/IN/00/DEVI) promastigotes; assay: In vitro antileishmanial activity on promastigotes, MTT assay; type: cell-based; settings: Leishmania donovani, 72 h incubation, mean +/- SD of three independent experiments
Method in brief: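 Log-phase L. donovani MHOM/IN/00/DEVI promastigotes at 10^6 parasites/mL in Schneider's medium with 20% FCS were exposed to compounds for 72 h at 27 °C, final DMSO under 0.5%. Viability was read by MTT reduction over 4 h, absorbance 570 nm (630 nm reference). IC50 came from regression, three independent experiments.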

[2] = tested on: T. brucei brucei AnTat 1.9; assay: In vitro antitrypanosomal activity, Alamar Blue assay; type: cell-based, Trypanosoma brucei brucei; settings: Trypanosoma brucei, slender bloodstream trypomastigotes, AnTat 1.9 strain; mean +/- SD of three independent experiments; read-out: Trypanosoma brucei brucei IC50 Values Trypanos Antat 1.9
Method in brief: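 Bloodstream T. brucei brucei AnTat 1.9 cultured in supplemented MEM with Earle's salts and exposed to compounds in duplicate for 69 h at 37 °C. Alamar Blue then added for 5 h, with fluorescence read at ex 530/em 590 nm.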

[3] = tested on: Plasmodium telomeric sequence FPf1T G-quadruplex; assay: FRET melting assay, FPf1T; type: binding, Plasmodium falciparum; settings: compound 2 μM, oligonucleotide 0.2 μM, K+ conditions
Method: (§1) These were performed with dual-labeled oligonucleotides mimicking the Plasmodium telomeric sequences FPf1T [FAM-5′(GGGTTTA)3-GGG3′-TAMRA] and FPf8T [FAM-5′(GGGTTCA)3GGG3′-TAMRA], the Trypanosoma 9 and 11 chromosomic sequence FTrypBT (also named FEBR1T) [FAM-5′[…]3′-TAMRA], the human telomeric sequence F21T [FAM-(GGGTTA)3-GGG3′-TAMRA] and the human duplex sequence FdxT [FAM5′-[…]-hexaethyleneglycol-[…]3′-TAMRA] [27, 31, 47]. The oligonucleotides were pre-folded in 10 mM lithium cacodylate buffer (pH 7.2), with 10 mM KCl and 90 mM LiCl (K^+ condition). The FAM emissions were recorded at 516 nm using a 492-nm excitation wavelength in the absence and presence of a single compound as a function of temperature (25 to 95 °C) in 96-well microplates using a Stratagene MX3000P real-time PCR device at a rate of 1 °C∙min-1. Data were normalized between 0 and 1, and the required temperature for half-denaturation of oligonucleotides corresponding to the emission value of 0.5 was taken as the Tm. Each experiment was performed in duplicate with 0.2 µM of labeled oligonucleotide and 2 µM of compound under K^+ condition. For each compound, three independent experiments were carried out.

[4] = tested on: human telomeric sequence F21T G-quadruplex; assay: FRET melting assay, F21T; type: binding; settings: compound 2 μM, oligonucleotide 0.2 μM, K+ conditions
Method: as §1

[5] = tested on: human duplex sequence FdxT; assay: FRET melting assay, duplex control FdxT; type: binding; settings: compound 2 μM, oligonucleotide 0.2 μM, K+ conditions
Method: as §1

[6] = target: G4-forming oligonucleotide Pf1 (d[(G3T3A)3G3]); assay: Native electrospray mass spectrometry, Pf1; type: binding, Plasmodium; set-up: key to Kd Pf1, stoichiometry 1 (Kd1) / Kd Pf1, stoichiometry 2 (Kd2): n.b.: no binding detected; <LOQ: binding detected but below limit of quantitation; settings: 100 mM TMAA, 1 mM KCl
Method: (§2) Oligonucleotides were purchased in the lyophilized form from Eurogentec (RP-cartridge purification), and dissolved at 1 mM in pure water. TMAA (1 M) was purchased from Santa Cruz Biotechnology and potassium chloride (purity > 99.99%) from Sigma Aldrich (Sigma Aldrich, Saint-Quentin-Fallavier, France). The sample solutions contained 10 µM oligonucleotide and 10 (for CD only) or 20 µM ligand, in a 100 mM TMAA, 1mM KCl buffer. The solutions were incubated overnight at 4 °C before analysis.
(§3) The sample solutions were injected at a 10 µM strand concentration on an Agilent 6560 DTIMS-Q-TOF instrument (Agilent Technologies, Santa Clara, CA, USA), equipped with a dual-ESI source operated in the negative ion mode in soft conditions. The following parameters were used: fragmentor 320 V, trap fill time 1000 µs, trap release time 200 µs, trap entrance grid delta 2 V. The drift tube was filled with helium and the pressure was fixed at 3.89 ± 0.01 Torr (measured by a capacitance diaphragm gauge CDG-500, Agilent Technologies).
(§4) The MS data were extracted using the IM-MS Browser (v. B.08.00; Agilent Technologies). The peak area intensity of each species at the 5- charge state was extracted from their corresponding m/z range (encompassing potassium adducts), and baseline subtracted. The concentrations of all species (free DNA, free ligands, and complexes) and corresponding dissociation constants were determined as previously described.

[7] = target: G4-forming oligonucleotide Pf8 (d[(G3T2CA)3G3]); assay: Native electrospray mass spectrometry, Pf8; type: binding, Plasmodium; settings: 100 mM TMAA, 1 mM KCl
Method: as §2, §3, §4

[8] = target: G-rich unfolded single-stranded sequence 24nonG4; assay: Native electrospray mass spectrometry, 24nonG4; type: binding; set-up: key to Kd 24nonG4, stoichiometry 2 (Kd2) / Kd 24nonG4, stoichiometry 1 (Kd1): n.b.: no binding detected; <LOQ: binding detected but below limit of quantitation; settings: 100 mM TMAA, 1 mM KCl; for Kd: read-out: Kd 24nonG4, stoichiometry 1 (Kd1); for Kd 24nonG4, stoichiometry 2 (Kd2): 2:1 ligand:DNA complex
Method: as §2, §3, §4

[9] = 1:1 ligand:DNA complex, read-out: Kd Pf1, stoichiometry 1 (Kd1)
[10] = 1:1 ligand:DNA complex, read-out: Kd Pf8, stoichiometry 1 (Kd1)
[11] = 2:1 ligand:DNA complex, read-out: Kd Pf8, stoichiometry 2 (Kd2)
[12] = 2:1 ligand:DNA complex, read-out: Kd Pf1, stoichiometry 2 (Kd2)

CN(C)CCCCNCc1cc(-c2ccccc2)c2ccc3c(-c4ccccc4)cc(CNCCCCN(C)C)nc3c2n1 [Compound 1c, 2,9-Bis[(4-dimethylaminobutyl)aminomethyl]-4,7-diphenyl-1,10-phenanthroline]
IC50 [1]: > 12.5 µM
IC50 [2]: 0.86 ± 0.16 µM
ΔTm FPf1T [3]: 8.9 °C
ΔTm F21T [4]: 13.2 °C
ΔTm FdxT [5]: −0.5 °C
Kd [6, 9]: 23 µM
Kd Pf1, stoichiometry 2 (Kd2) ([6]; 2:1 ligand:DNA complex): n.b.
Kd [7, 10]: 3 µM
Kd [7, 11]: 50 µM
Kd ([8]; 1:1 ligand:DNA complex): 9 µM
Kd 24nonG4, stoichiometry 2 (Kd2) [8]: <LOQ

CN(C)CCCCCNCc1cc(-c2ccccc2)c2ccc3c(-c4ccccc4)cc(CNCCCCCN(C)C)nc3c2n1 [Compound 1d, 2,9-Bis[(5-dimethylaminopentyl)aminomethyl]-4,7-diphenyl-1,10-phenanthroline]
IC50 [1]: > 12.5 µM
IC50 [2]: 1.42 ± 0.1 µM
ΔTm FPf1T [3]: 18.8 °C
ΔTm F21T [4]: 18.1 °C
ΔTm FdxT [5]: 1.8 °C
Kd [6, 9]: 8 µM
Kd [6, 12]: 24 µM
Kd [7, 10]: 3 µM
Kd [7, 11]: 16 µM
Kd ([8]; 1:1 ligand:DNA complex): 11 µM
Kd 24nonG4, stoichiometry 2 (Kd2) [8]: <LOQ

c1ccc(-c2cc(CNCCCN3CCCC3)nc3c2ccc2c(-c4ccccc4)cc(CNCCCN4CCCC4)nc23)cc1 [Compound 1l]
IC50 [1]: > 12.5 µM
IC50 [2]: 1.13 ± 0.06 µM
ΔTm FPf1T [3]: 15.4 °C
ΔTm F21T [4]: 14.5 °C
ΔTm FdxT [5]: 0.7 °C
Kd [6, 9]: 10 µM
Kd [6, 12]: 37 µM
Kd [7, 10]: 2 µM
Kd [7, 11]: 59 µM
Kd ([8]; 1:1 ligand:DNA complex): 8 µM
Kd 24nonG4, stoichiometry 2 (Kd2) [8]: <LOQ

c1ccc(-c2cc(CNCCc3ccccn3)nc3c2ccc2c(-c4ccccc4)cc(CNCCc4ccccn4)nc23)cc1 [Compound 1m]
IC50 [1]: > 12.5 µM
ΔTm FPf1T [3]: 1.3 °C
ΔTm F21T [4]: 1.0 °C
ΔTm FdxT [5]: −0.2 °C
Kd Pf1, stoichiometry 1 (Kd1) ([6]; 1:1 ligand:DNA complex): n.b.
Kd Pf8, stoichiometry 1 (Kd1) ([7]; 1:1 ligand:DNA complex): very weakly bound
Kd [7, 10]: 83 µM
Kd 24nonG4, stoichiometry 1 (Kd1) ([8]; 1:1 ligand:DNA complex): n.b.
